Measured values reported in ChEMBL document CHEMBL4017454, “Bioactive terpenoids from Silybum marianum and their suppression on NO release in LPS-induced BV-2 cells and interaction with iNOS” (Bioorg Med Chem Lett, 2017).

Key:
BV-2 [1] = experiment: Cytotoxicity against mouse BV2 cells assessed as cell survival by MTT assay; assay type: cell-based
BV-2 [2] = experiment: Inhibition of LPS-induced NO production in mouse BV2 cells after 20 hrs by Griess assay; assay type: functional, cell-based; conditions: BV-2, 20 h

IC50 (BV-2 [2]) [µM]	SMILES	Activity (BV-2 [1])
14.1	CC(C)(O)c1ccc(CO)c(O[C@@H]2O[C@H](CO)[C@@H](O)[C@H](O)[C@H]2O)c1	Non-Toxic
2.5	CSC(=N)N.O=S(=O)(O)O	Non-Toxic
6.8	CC1=C2C[C@H]([C@@](C)(O)CO)CC[C@@]2(C)[C@H](O)CC1=O	Non-Toxic
17.8	Cc1ccc([C@@H](C)CO)cc1O	Non-Toxic
15.2	CC(C)(O)c1ccc(CO)c(O)c1	Non-Toxic
